Our source for the IC50 values is patent US20250197399A1, “COMPOUNDS, COMPOSITIONS, AND METHODS” (Tenvie Therapeutics, Inc., priority 2022, published 2025).

For this assay, the system named is NLRP3. Description: IL-1β secretion assay in PMA-differentiated, LPS/nigericin-stimulated THP-1 cells (ELISA). The assay is classed as cell-based. To be noted: Homo sapiens, THP-1, THP-1 cells, 25 ng/mL LPS then nigericin, IL-1β in supernatant. The gist of the method: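 PMA-differentiated (5 ng/mL, 40 h) THP-1 cells primed with 25 ng/mL LPS in serum-free medium for 2 h, then compound (0.5% DMSO) for 1 h before nigericin, 2 h at 37 °C. Supernatant IL-1β measured by sandwich ELISA; dose-response normalized to LPS+nigericin high and LPS-only low controls.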
(In general: In an ELISA, binding on a coated surface is turned into a signal by an enzyme label.)

Setting [1] is: read-out: Activity (IC50 class).

Like-named read-outs stand apart in the source and are kept apart here.

`Cc1cnc(NC(=O)CN2CC(C(F)(F)F)c3cc(C)ccc3C2=O)nc1` (stereo not drawn) [Example 9, 2-(6-methyl-1-oxo-4-(trifluoromethyl)-3,4-dihydroisoquinolin-2(1H)-yl)-N-(5-methylpyrimidin-2-yl)acetamide]: the IC50 is 1.54 µM (read-out: Activity) and 1 to 10 µM under setting [1].
Taken in the same sequence, the figures for `O=C(CN1CC2(CC2)c2cc(Br)ccc2C1=O)Nc1ncc2cn[nH]c2n1` [Example 42, 2-(6-bromo-1-oxo-spiro[3H-isoquinoline-4,1′-cyclopropane]-2-yl)-N-(1H-pyrazolo[3,4-d]pyrimidin-6-yl)acetamide] were 0.061 µM and under 1 µM.
On the same counts, the results for `O=C(CN1CC2(CC2)c2c(ccc(Br)c2F)C1=O)Nc1ncc2cn[nH]c2n1` [Example 46, 2-(6-bromo-5-fluoro-1-oxospiro[3H-isoquinoline-4,1′-cyclopropane]-2-yl)-N-(1H-pyrazolo[3,4-d]pyrimidin-6-yl)acetamide] are 0.038 µM and under 1 µM.
As to `O=C(CN1CC2(CC2)c2cc(C(F)(F)F)ccc2C1=O)Nc1ncc2cn[nH]c2n1` [Example 51, 2-[1-oxo-6-(trifluoromethyl)spiro[3H-isoquinoline-4,1′-cyclopropane]-2-yl]-N-(1H-pyrazolo[3,4-d]pyrimidin-6-yl)acetamide], the IC50 is 0.181 µM (read-out: Activity) and under 1 µM under setting [1].
`O=C(CN1C[C@]2(C[C@H]2F)c2cc(Br)ccc2C1=O)Nc1ncc2cn[nH]c2n1` [Example 54, 2-[(2′R,4S)-6-bromo-2′-fluoro-1-oxospiro[3H-isoquinoline-4,1′-cyclopropane]-2-yl]-N-(1H-pyrazolo[3,4-d]pyrimidin-6-yl)acetamide]: the IC50 by setting is: (read-out: Activity) 0.005 µM; under setting [1], under 1 µM.
On the same counts, the results for `O=C(CN1CC2(CC2)c2cc(Br)ccc2C1=O)Nc1ncc2nc[nH]c2n1` [Example 55, 2-(6-bromo-1-oxospiro[3H-isoquinoline-4,1′-cyclopropane]-2-yl)-N-(9H-purin-2-yl)acetamide] are 0.114 µM and under 1 µM.
In the case of `O=C(CN1CC2(CC2)c2cc(Br)ccc2C1=O)Nc1ncc2c(C(F)(F)F)n[nH]c2n1` [Example 58, 2-(6-bromo-1-oxospiro[3H-isoquinoline-4,1′-cyclopropane]-2-yl)-N-[3-(trifluoromethyl)-1H-pyrazolo[3,4-d]pyrimidin-6-yl]acetamide], the IC50 (read-out: Activity) was determined as 0.279 µM and the IC50 under setting [1] was under 1 µM.
For `O=C(CN1CC2(CC2)c2cc(Br)ccc2C1=O)Nc1nc2[nH]ncc2cc1F` [Example 59, 2-(6-bromo-1-oxospiro[3H-isoquinoline-4,1′-cyclopropane]-2-yl)-N-[5-fluoro-1H-pyrazolo[3,4-b]pyridin-6-yl]acetamide], the IC50 (read-out: Activity) stood at 0.322 µM and the IC50 under setting [1] is under 1 µM.
Taken in the same sequence, the figures for `COC(=O)C12CC(NC(=O)CN3CC4(CC4)c4cc(Br)ccc4C3=O)(C1)C2` [Example 60, methyl 3-[[2-(6-bromo-1-oxospiro[3H-isoquinoline-4,1′-cyclopropane]-2-yl)acetyl]amino]bicyclo[1.1.1]pentane-1-carboxylate] were 0.216 µM and under 1 µM.
On the same counts, the results for `O=C(CN1CC2(CC2)c2c(ccc(Br)c2F)C1=O)Nc1ccc2nn[nH]c2c1` [Example 61, N-(3H-benzotriazol-5-yl)-2-(6-bromo-5-fluoro-1-oxospiro[3H-isoquinoline-4,1′-cyclopropane]-2-yl)acetamide] are 0.162 µM and under 1 µM.
On the same counts, the results for `O=C(CN1CC2(CC2)c2c(ccc(Br)c2F)C1=O)Nc1ncc2nc[nH]c2n1` [Example 62, 2-(6-bromo-5-fluoro-1-oxospiro[3H-isoquinoline-4,1′-cyclopropane]-2-yl)-N-(9H-purin-2-yl)acetamide] are 0.08 µM and under 1 µM.
Turning to `O=C(CN1CC2(CC2(F)F)c2cc(Br)ccc2C1=O)Nc1ncc2cn[nH]c2n1` (stereo not drawn) [Example 63, 2-(6-bromo-1′,1′-difluoro-1-oxospiro[3H-isoquinoline-4,2′-cyclopropane]-2-yl)-N-(1H-pyrazolo[3,4-d]pyrimidin-6-yl)acetamide], the IC50 is 0.034 µM (read-out: Activity) and under 1 µM under setting [1].
